# Laboratory results taken from patent US20230165969A1, “PHARMACEUTICAL COMPOSITION COMPRISING ANTIBODY DRUG CONJUGATE AND USE THEREOF” (priority 2020, published 2023).
# Test system: trastuzumab (Herceptin)-resistant human breast cancer cell strain JIMT-1 xenograft tumor
# Assay: Drug efficacy on JIMT-1 tumor-bearing mice
# Assay type: in vivo, nu/nu nude mice
# Settings: 10 mg/kg, two intraperitoneal injections, observation for 34 days
# Experimental: The tumor volumes and body weights were measured twice a week and the results were recorded.
substance,measurement,value
T-DM1,tumor inhibition rate,no inhibition effect on tumors
